Results reported in article PMC4418665, “Cyclization of the Urokinase Receptor-Derived Ser-Arg-Ser-Arg-Tyr Peptide Generates a Potent Inhibitor of Trans-Endothelial Migration of Monocytes” (PLoS ONE, 2015).
Peptide text beside a SMILES is read from it.

Legend:
[1] = test system: PMA-differentiated THP-1 cells; type: cell-based, human; conditions: 3 h
Procedure: (§1) The ability of [SRSRY] peptide to affect THP-1 cell migration was analyzed in Boyden chambers using 10 nM fMLF or 10 nM SRSRY as chemoattractants. […] Inhibitory effect of [SRSRY] is dose-dependent, it starts in the high fM range, it seems to level off in the μM range and reaches an overall 50% reduction at 10 pM (Fig 4B). […] The mechanisms by which monocytes move when subjected to a chemoattractant gradient, involve changes in cytoskeletal organization, which provide both protrusive and contractile forces necessary for cell migration. To gain some insights into the cellular effects exerted by peptide [SRSRY], PMA-differentiated THP-1 cells were grown adherent onto a glass slide, exposed to diluents (CTL), 10 nM fMLF gradient plus/minus 10 nM [SRSRY] or 10 nM [RSSYR] in a DUNN chamber for 6 hours as described, and then stained with rhodamine-phalloidin. A total of 100 cells/sample that translocated to the area corresponding to the ring separating the inner and outer chambers were counted and their cytoskeletal organization examined with a fluorescence-inverted microscope. […] Conversely, the addition of peptide [SRSRY] to the fMLF gradient reduced cell elongation and alignment with the appearance of F-actin linear distribution along the plasma membranes in the 60% of cell population (Fig 4C). In order to verify whether the inhibitory effect of [SRSRY] also occurs on primary monocytes and/or macrophages, human monocytes and macrophages were subjected to cell migration assays in Boyden and DUNN chambers, respectively. […] Unlike [RSSYR], 10 nM [SRSRY] reduced both fMLF- and SRSRY- directed monocyte migration by 50% and 49%, respectively. Next, primary macrophages were subjected to cell migration assay in DUNN chamber as above described. After 6 hours incubation, a total of 100 cells/sample that translocated to the area corresponding to the ring separating the inner and outer chambers were counted. Macrophage exposure to 10 nM fMLF elicited a considerable cell migration, reaching 230% of the basal cell migration (CTL), that was unchanged by 10 nM [[…]). […] These findings indicate that unlike linear SRSRY, the cyclic form of the chemotactic sequence of uPAR inhibits monocyte motility and prevents cytoskeletal re-organization occurring during migration of macrophages. {[…]] inhibits migration of monocytes and macrophages in a dose-dependent manner causing a marked inhibition of fMLF-dependent cytoskeletal re-organization. A. THP-1 cells (1x10^5 cells/well) were allowed to migrate for 90 minutes at 37°C, 5% CO2 in Boyden chambers toward 10 nM fMLF, or 10 nM SRSRY in the presence of diluents (None), 10 nM [RSSYR] or 10 nM [SRSRY]. […] Data are expressed as the means ± SD of three independent experiments, performed in duplicate. *Statistical significance against None with p<0.001. B. THP-1 and PMA-stimulated THP-1 cell migration toward 10 nM fMLF plus increasing concentrations of [SRSRY] in Boyden chambers. The extent of cell migration was expressed as a percentage of the net fMLF-dependent cell migration, considered as 100%. Data are expressed as the means ± SD of three independent experiments, performed in duplicate. C. Representative images of PMA-stimulated THP-1 cells allowed to migrate in a DUNN chamber toward diluents (CTL), or a fMLF chemotactic gradient, in the absence (None) or presence of 10 nM [SRSRY] or [RSSYR] peptides and stained with rhodamine-phalloidin. Scale bar: 10 μm. Original magnifications: 630x. D-E. Primary monocytes (1x10^5 cells/well) were allowed to migrate for 90 minutes at 37°C, 5% CO2 in Boyden chambers toward 10 nM fMLF (D), or 10 nM […]) in the presence of diluents (None), 10 nM [RSSYR] or 10 nM [SRSRY]. […] Data are expressed as the means ± SD of three independent experiments, performed in duplicate. *Statistical significance against None with p<0.001; **Statistical significance against None with p<0.0001. […]

THP-1 cells = type: cell-based, human
Procedure: as §1

[2] = 10 nM peptide, 90 minutes, Boyden chamber

IC50 [1]: 10 pM
IC50 (THP-1 cells; 6 h): 10 pM
SMILES: N=C(N)NCCC[C@@H]1NC(=O)[C@H](CO)NC(=O)[C@H](Cc2ccc(O)cc2)NC(=O)[C@H](CCCNC(=N)N)NC(=O)[C@H](CO)NC1=O [[SRSRY], [Ser-Arg-Ser-Arg-Tyr]] (cyclo(RSRYS))
reduction of THP-1 monocyte migration toward 10 nM SRSRY (THP-1 cells; [2]): 68%
reduction of THP-1 monocyte migration toward 10 nM fMLF (THP-1 cells; [2]): 58%
